Values quoted from earlier work in patent US8906911B2, “Chemokine receptor antagonists” (AbbVie Inc., priority 2012, dated 2014).

Columns and labels:
CCR2 [1] = molecular target: CCR2 (Rattus norvegicus (Rat), UniProt O55193); conditions: direct injection of MCP-1 in the spinal cord; cited from earlier work
CCR2 [2] = conditions: in vivo; cited from earlier work

Sequence of CCR2 (Rattus norvegicus (Rat), UniProt O55193) (O55193 whole entry): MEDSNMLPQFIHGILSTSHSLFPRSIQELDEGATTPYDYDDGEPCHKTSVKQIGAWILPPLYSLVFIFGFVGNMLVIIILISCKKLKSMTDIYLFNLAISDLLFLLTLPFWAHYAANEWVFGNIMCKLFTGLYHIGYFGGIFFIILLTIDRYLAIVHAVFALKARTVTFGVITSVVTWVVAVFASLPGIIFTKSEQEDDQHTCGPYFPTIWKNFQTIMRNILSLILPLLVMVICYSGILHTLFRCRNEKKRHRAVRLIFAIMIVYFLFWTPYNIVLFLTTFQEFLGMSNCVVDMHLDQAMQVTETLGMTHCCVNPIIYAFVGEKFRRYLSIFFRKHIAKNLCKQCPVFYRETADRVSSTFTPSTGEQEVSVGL

SMILES	MCP-1 induced pronociception (thermal hyperalgesia and mechanical allodynia) (CCR2 [1])	hyperalgesia induced by MCP-1 injection in the RVM (CCR2 [2])
CCO[C@H]1CN(C2CCC(O)(c3ccc4c(c3)OCO4)CC2)C[C@@H]1NC(=O)CNC(=O)c1cccc(C(F)(F)F)c1 (some centres unmarked) [INCB3344]	blocked	–
O=C1Nc2ccccc2C2(CCN(CCc3ccc(C(F)(F)F)cc3)CC2)O1 [RS102895]	–	reversed
